In patent US8980905B2, “Benzodioxole or benzodioxepine heterocyclic compounds as phosphodiesterase inhibitors” (Leo Pharma A/S, priority 2010, dated 2015):

Biological target: Human recombinant PDE4 (Genbank accession no NM-006203) (Homo sapiens (Human), UniProt Q08499)
Assay: PDE4 Assay (SPA, cAMP cleavage)
Format: biochemical
Conditions: human recombinant PDE4, 1 hour incubation, cAMP 1x10-5 M; read-out: IC50 (PDE4)
Description: Human recombinant PDE4 (Genbank accession no NM_006203) was incubated for 1 hour, with the test compound at concentrations up to 10 μM, with cAMP (1×10^-5M), and with a low amount (0.021 MBq) of radioactively labelled cAMP. At the end of the incubation, the cleavage of the substrate was evaluated by the binding of the AMP product to SPA beads, which generate chemoluminescence when bound to the radioactive tracer. The AMP product inhibited the binding of the radioactive tracer to the beads, and the luminescent signal was competed.
The results were calculated as the molar concentrations resulting in 50% inhibition of the substrate cleavage compared to controls samples, and are expressed as IC50 (M).

Human recombinant PDE4 (Genbank accession no NM-006203), sequence (Q08499 other isoform, or with tags, fused parts or gaps): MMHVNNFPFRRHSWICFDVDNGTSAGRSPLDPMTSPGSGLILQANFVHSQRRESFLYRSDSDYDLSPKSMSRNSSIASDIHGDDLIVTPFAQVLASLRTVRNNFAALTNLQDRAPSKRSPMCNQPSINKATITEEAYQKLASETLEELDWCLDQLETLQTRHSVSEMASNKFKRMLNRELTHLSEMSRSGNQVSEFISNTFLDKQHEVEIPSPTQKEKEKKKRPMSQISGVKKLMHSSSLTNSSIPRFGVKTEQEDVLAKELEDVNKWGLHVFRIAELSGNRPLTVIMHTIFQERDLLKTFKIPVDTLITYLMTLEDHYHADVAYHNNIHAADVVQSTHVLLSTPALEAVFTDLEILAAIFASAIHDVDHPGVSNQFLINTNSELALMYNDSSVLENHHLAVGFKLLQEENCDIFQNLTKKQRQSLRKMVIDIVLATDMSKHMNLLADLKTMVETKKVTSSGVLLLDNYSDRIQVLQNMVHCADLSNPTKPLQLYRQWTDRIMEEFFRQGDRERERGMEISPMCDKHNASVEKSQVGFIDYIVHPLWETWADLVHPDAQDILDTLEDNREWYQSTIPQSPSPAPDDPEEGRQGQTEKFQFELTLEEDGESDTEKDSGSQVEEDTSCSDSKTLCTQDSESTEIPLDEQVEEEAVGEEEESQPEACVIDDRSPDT

Q: With `O=C(Cc1c(Cl)cncc1Cl)c1ccc(OC(F)F)c2c1OCC1(COC1)CO2` [Compound 101, 2-(3,5-Dichloropyridin-4-yl)-1-{9-difluoromethoxy-spiro[2H-1,5-benzodioxepin-3(4H),3′-oxetane]-6-yl}ethanone] as the compound, how does the IC50 read?
A: Its IC50 is 6 nM.

Q: Which IC50 does the source give for `O=C(Cc1c(Cl)c[n+]([O-])cc1Cl)c1ccc(OC(F)F)c2c1OCC1(CCOCC1)CO2` [Compound 104, 2-(3,5-Dichloro-1-oxido-pyridin-4-yl)-1-{9-difluoromethoxy-spiro[2H-1,5-benzodioxepin-3(4H),4′-tetrahydropyran]-6-yl}ethanone] here?
A: The IC50 was 4 nM.

Q: For `O=C(Cc1c(Cl)cncc1Cl)c1ccc(OC(F)F)c2c1OCC1(CCOCC1)CO2` [Compound 103, 2-(3,5-Dichloropyridin-4-yl)-1-{9-difluoromethoxy-spiro[2H-1,5-benzodioxepin-3(4H),4′-tetrahydropyran]-6-yl}ethanone], which IC50 is on record?
A: The IC50 was 6 nM.

Q: Which IC50 does the source give for `O=C(Nc1c(Cl)cncc1Cl)c1ccc(OC(F)F)c2c1OC1(CCSCC1)O2` [Compound 110, N-(3,5-Dichloro-4-pyridyl)-7-Difluoromethoxy-2′,3′,5′,6′-tetrahydro-spiro[1,3-benzodioxole-2,4′-(4H)-thiopyran]-4-carbamide] here?
A: Its IC50 is 2 nM.

Q: Which IC50 does the source give for `O=C(Nc1c(Cl)c[n+]([O-])cc1Cl)c1ccc(OC(F)F)c2c1OC1(CCS(=O)(=O)CC1)O2` [Compound 111, N-(3,5-dichloro-1-oxo-4-pyridyl)-7-(difluoromethoxy)-1′,1′-dioxo-spiro[1,3-benzodioxole-2,4′-thiane]-4-carboxamide] here?
A: The IC50 was 106 nM.

Q: With `O=C(Cc1c(Cl)c[n+]([O-])cc1Cl)c1ccc(OC(F)F)c2c1OC1(CCOCC1)O2` [Compound 106, 2-(3,5-Dichloro-1-oxido-pyridine-4-yl)-1-(7-difluoromethoxy-2′,3′,5′,6′-tetrahydro-spiro[1,3-benzodioxole-2,4′-(4H)-pyran]-4-yl)ethanone] as the compound, how does the IC50 read?
A: The IC50 was 5 nM.

Q: For `O=C(Cc1c(Cl)c[n+]([O-])cc1Cl)c1ccc(OC(F)F)c2c1OC1(CCS(=O)(=O)CC1)O2` [Compound 108, 2-(3,5-Dichloro-1-oxido-pyridine-4-yl)-1-(7-difluoromethoxy-2′,3′,5′,6′-tetrahydro-spiro[1,3-benzodioxole-2, 4′-(4H)-thiopyran-1′,1′-dioxide]-4-yl)ethanone], which IC50 is on record?
A: Its IC50 is 16 nM.

Q: For `O=C(Cc1c(Cl)cncc1Cl)c1ccc(OC(F)F)c2c1OC1(CCOCC1)O2` [Compound 105, 2-(3,5-Dichloropyridine-4-yl)-1-(7-difluoromethoxy-2′,3′,5′,6′-tetrahydro-spiro[1,3-benzodioxole-2,4′-(4H)-pyran]-4-yl)ethanone], which IC50 is on record?
A: Its IC50 is 7 nM.

Q: For `O=C(Cc1c(Cl)cncc1Cl)c1ccc(OC(F)F)c2c1OC1(CCS(=O)(=O)CC1)O2` [Compound 109, 2-(3,5-Dichloropyridine-4-yl)-1-(7-difluoromethoxy-2′,3′,5′,6′-tetrahydro-spiro[1,3-benzodioxole-2, 4′-(4H)-thiopyran-1′,1′-dioxide]-4-yl)ethanone], which IC50 is on record?
A: The IC50 was 13 nM.

Same assay, conditions: stated in text of example 15; read-out: PDE4 activity

Q: For `O=C(Cc1c(Cl)cncc1Cl)c1ccc(O)c2c1OC1(CCOCC1)O2` [Compound 403, 2-(3,5-Dichloropyridine-4-yl)-1-(7-hydroxy-2′,3′,5′,6′-tetrahydro-spiro[1,3-benzodioxole-2,4′-(4H)-pyran]-4-yl)ethanone], which IC50 is on record?
A: The IC50 was 5000 nM.

System: not listed separately
Assay: In vivo pharmacokinetic analyses in rat
Conditions: serum, PO dosing 5 mg/kg, read-out: Serum Cmax of parent compound
Description: One rat is dosed orally (5 mg/kg—dissolved in DMSO/H2O/propylenglycol [1:5:4]) and blood samples are taken from the sublingual venous plexus at 30 min, 1 h, 2 h, 4 h and 6 h. Blood samples are taken in BD Vacutainer SST serum separation tubes, serum is isolated by centrifugation, transferred to micronics tubes and subsequently analysed.
Mass spectrometer (API5000 series) parameters are optimised to analyse for the specific compounds and test injections are performed to confirm the validity of the established generic chromatography method. The generic method is based on fast gradient (2.5 min) analysis on C18 column with mobile phases consisting methanol, ammonium acetate, formic acid and water.
Standards are prepared in rat serum to cover the analytical range 0.1 to 300 ng/ml. Standards, blank serum and study samples are applied to 96 deepwell plate and proteins are precipitated by addition of acetonitrile containing internal standard. Samples are analysed on LC-MS/MS usually overnight. Integration and quantification is performed on ration between analyte and internal standard using Analyst software version 1.5. Pharmacokinetic parameters are calculated using a standardised Excel spreadsheet.

Q: With `O=C(Cc1c(Cl)c[n+]([O-])cc1Cl)c1ccc(OC(F)F)c2c1OC1(CCOCC1)O2` [Compound 106, 2-(3,5-Dichloro-1-oxido-pyridine-4-yl)-1-(7-difluoromethoxy-2′,3′,5′,6′-tetrahydro-spiro[1,3-benzodioxole-2,4′-(4H)-pyran]-4-yl)ethanone] as the compound, how does the Cmax read?
A: The Cmax was 133 ng/mL.

Q: For `O=C(Cc1c(Cl)cncc1Cl)c1ccc(OC(F)F)c2c1OC1(CCOCC1)O2` [Compound 105, 2-(3,5-Dichloropyridine-4-yl)-1-(7-difluoromethoxy-2′,3′,5′,6′-tetrahydro-spiro[1,3-benzodioxole-2,4′-(4H)-pyran]-4-yl)ethanone], which Cmax is on record?
A: The Cmax was < 3 ng/mL.
